Experimental data as given in the NIST ThermoML archive (doi:10.1016/j.fluid.2011.06.011).

Test: xn = mol fraction of the nth substance listed
Details: Liquid; for speed of sound: Sing-around technique in a fixed-path interferometer; for mass density: Vibrating tube method

C=CC(C)(O)CCC=C(C)C (stereo unspecified) [3,7-dimethyl-1,6-octadien-3-ol] + CCO
Details | mass density, 283.15 K [kg/m3] | mass density, 298.15 K [kg/m3] | mass density, 313.15 K [kg/m3] | mass density, 328.15 K [kg/m3] | speed of sound, 283.15 K [m/s] | speed of sound, 298.15 K [m/s] | speed of sound, 313.15 K [m/s] | speed of sound, 328.15 K [m/s]
101 kPa, x1 = 0.0493 | – | – | – | – | – | – | – | 1070.8
101 kPa, x1 = 0.0506 | 809.66 | 797.07 | 784.31 | 770.91 | 1222 | – | – | –
101 kPa, x1 = 0.0507 | – | – | – | – | – | 1171.7 | 1122.4 | –
101 kPa, x1 = 0.0996 | – | – | – | – | – | – | 1142.3 | –
101 kPa, x1 = 0.1008 | 819.09 | 806.76 | 794.24 | 780.72 | 1245 | 1196.3 | – | 1095.1
101 kPa, x1 = 0.1969 | 833.37 | 821.08 | 808.41 | 795.22 | 1281 | 1229.2 | 1177.2 | 1125
101 kPa, x1 = 0.2884 | – | – | 818.41 | 805.21 | – | – | – | –
101 kPa, x1 = 0.2895 | 843.35 | 831.1 | – | – | – | 1253.6 | – | –
101 kPa, x1 = 0.2959 | – | – | – | – | 1307.6 | – | 1200.7 | 1147.3
101 kPa, x1 = 0.3862 | – | 838.62 | – | – | 1325.8 | 1271.2 | – | –
101 kPa, x1 = 0.3918 | – | – | – | – | – | – | 1218.2 | –
101 kPa, x1 = 0.3957 | 851.69 | – | 826.66 | 813.44 | – | – | – | 1163.9
101 kPa, x1 = 0.4803 | 856.48 | 844.09 | 831.36 | 818.17 | 1339 | – | – | –
101 kPa, x1 = 0.4834 | – | – | – | – | – | 1285 | – | 1173.9
101 kPa, x1 = 0.4854 | – | – | – | – | – | – | 1230.3 | –
101 kPa, x1 = 0.593 | 861.02 | 848.66 | 835.94 | 822.82 | 1350.3 | 1294.7 | 1240 | 1185.1
101 kPa, x1 = 0.6838 | 863.65 | 851.31 | 838.63 | 825.57 | 1355.4 | 1300.7 | 1247.1 | 1193.8
101 kPa, x1 = 0.7832 | – | – | – | – | 1361 | 1306.5 | 1252.8 | 1199
101 kPa, x1 = 0.8438 | 866.82 | 854.5 | 841.86 | 828.96 | – | – | – | –
101 kPa, x1 = 0.8633 | – | – | – | – | – | – | 1257 | 1203.2
101 kPa, x1 = 0.8941 | 867.74 | 855.41 | 842.75 | 829.77 | 1365.1 | 1310.7 | – | –
101 kPa, x1 = 0.9286 | 868.3 | 855.96 | 843.29 | 830.31 | 1366.7 | 1312.2 | 1259.5 | 1206.3
101 kPa, x1 = 1 | 869.39 | 857 | 844.29 | 831.31 | 1370.6 | 1315.1 | 1260.8 | 1207.6
20000 kPa, x1 = 0.0511 | 824.1 | 812.6 | 801 | 789.2 | – | – | – | –
20000 kPa, x1 = 0.1003 | 832.7 | 821.5 | 809.9 | 798.3 | – | – | – | –
20000 kPa, x1 = 0.1962 | 845.8 | 834.6 | 823 | 811.4 | – | – | – | –
20000 kPa, x1 = 0.2989 | 856 | 844.8 | 833.1 | 821.4 | – | – | – | –
20000 kPa, x1 = 0.3996 | 863 | 851.7 | 840 | 828.3 | – | – | – | –
20000 kPa, x1 = 0.5015 | 868.2 | 856.9 | 845.2 | 833.5 | – | – | – | –
20000 kPa, x1 = 0.5982 | 871.9 | 860.6 | 848.8 | 837.1 | – | – | – | –
20000 kPa, x1 = 0.6898 | 874.7 | 863.4 | 851.6 | 839.9 | – | – | – | –
20000 kPa, x1 = 0.7929 | 877.2 | 865.8 | 854.1 | 842.5 | – | – | – | –
20000 kPa, x1 = 0.8885 | 879.1 | 867.7 | 856 | 844.4 | – | – | – | –
20000 kPa, x1 = 0.9435 | 880 | 868.6 | 856.9 | 845.3 | – | – | – | –
20000 kPa, x1 = 1 | 880.8 | 869.4 | 857.6 | 846 | – | – | – | –
25000 kPa, x1 = 0.0511 | 827.5 | 816.1 | 804.8 | 793.4 | – | – | – | –
25000 kPa, x1 = 0.1003 | 836.1 | 824.9 | 813.7 | 802.2 | – | – | – | –
25000 kPa, x1 = 0.1962 | 849 | 837.9 | 826.7 | 815.2 | – | – | – | –
25000 kPa, x1 = 0.2989 | 859.1 | 848 | 836.6 | 825.1 | – | – | – | –
25000 kPa, x1 = 0.3996 | 866 | 854.8 | 843.5 | 831.9 | – | – | – | –
25000 kPa, x1 = 0.5015 | 871.2 | 860 | 848.6 | 837 | – | – | – | –
25000 kPa, x1 = 0.5982 | 874.9 | 863.6 | 852.2 | 840.6 | – | – | – | –
25000 kPa, x1 = 0.6898 | 877.6 | 866.3 | 854.9 | 843.4 | – | – | – | –
25000 kPa, x1 = 0.7929 | 880.1 | 868.7 | 857.4 | 845.9 | – | – | – | –
25000 kPa, x1 = 0.8885 | 882 | 870.7 | 859.3 | 847.8 | – | – | – | –
25000 kPa, x1 = 0.9435 | 882.9 | 871.5 | 860.1 | 848.6 | – | – | – | –
25000 kPa, x1 = 1 | 883.7 | 872.3 | 860.9 | 849.3 | – | – | – | –
30000 kPa, x1 = 0.0511 | 830.7 | 819.6 | 808.5 | 797.1 | – | – | – | –
30000 kPa, x1 = 0.1003 | 839 | 828.2 | 817.2 | 806 | – | – | – | –
30000 kPa, x1 = 0.1962 | 851.9 | 841.1 | 830.1 | 818.8 | – | – | – | –
30000 kPa, x1 = 0.2989 | 861.9 | 851 | 839.9 | 828.6 | – | – | – | –
30000 kPa, x1 = 0.3996 | 868.8 | 857.8 | 846.7 | 835.3 | – | – | – | –
30000 kPa, x1 = 0.5015 | 873.9 | 863 | 851.7 | 840.4 | – | – | – | –
30000 kPa, x1 = 0.5982 | 877.5 | 866.5 | 855.3 | 843.9 | – | – | – | –
30000 kPa, x1 = 0.6898 | 880.2 | 869.2 | 858 | 846.7 | – | – | – | –
30000 kPa, x1 = 0.7929 | 882.7 | 871.6 | 860.5 | 849.2 | – | – | – | –
30000 kPa, x1 = 0.8885 | 884.6 | 873.5 | 862.3 | 851 | – | – | – | –
30000 kPa, x1 = 0.9435 | 885.4 | 874.4 | 863.1 | 851.9 | – | – | – | –
30000 kPa, x1 = 1 | 886.1 | 875.2 | 863.9 | 852.6 | – | – | – | –
35000 kPa, x1 = 0.0511 | 833.8 | 822.8 | 812 | 800.7 | – | – | – | –
35000 kPa, x1 = 0.1003 | 842.2 | 831.4 | 820.6 | 809.6 | – | – | – | –
35000 kPa, x1 = 0.1962 | 854.9 | 844.1 | 833.3 | 822.3 | – | – | – | –
35000 kPa, x1 = 0.2989 | 864.7 | 854 | 843 | 832 | – | – | – | –
35000 kPa, x1 = 0.3996 | 871.5 | 860.7 | 849.6 | 838.6 | – | – | – | –
35000 kPa, x1 = 0.5015 | 876.7 | 865.8 | 854.7 | 843.6 | – | – | – | –
35000 kPa, x1 = 0.5982 | 880.3 | 869.3 | 858.3 | 847.2 | – | – | – | –
35000 kPa, x1 = 0.6898 | 882.9 | 872 | 861 | 849.9 | – | – | – | –
35000 kPa, x1 = 0.7929 | 885.3 | 874.4 | 863.4 | 852.3 | – | – | – | –
35000 kPa, x1 = 0.8885 | 887.2 | 876.3 | 865.3 | 854.2 | – | – | – | –
35000 kPa, x1 = 0.9435 | 888.1 | 877.1 | 866.1 | 855 | – | – | – | –
35000 kPa, x1 = 1 | 888.9 | 877.9 | 866.8 | 855.7 | – | – | – | –
40000 kPa, x1 = 0.0511 | 836.8 | 826 | 815.4 | 804.6 | – | – | – | –
40000 kPa, x1 = 0.1003 | 845.1 | 834.5 | 824 | 813.1 | – | – | – | –
40000 kPa, x1 = 0.1962 | 857.6 | 847.1 | 836.5 | 825.6 | – | – | – | –
40000 kPa, x1 = 0.2989 | 867.4 | 856.9 | 846.2 | 835.2 | – | – | – | –
40000 kPa, x1 = 0.3996 | 874.1 | 863.5 | 852.8 | 841.8 | – | – | – | –
40000 kPa, x1 = 0.5015 | 879.3 | 868.6 | 857.8 | 846.7 | – | – | – | –
40000 kPa, x1 = 0.5982 | 882.8 | 872.1 | 861.3 | 850.3 | – | – | – | –
40000 kPa, x1 = 0.6898 | 885.5 | 874.8 | 864 | 853 | – | – | – | –
40000 kPa, x1 = 0.7929 | 887.9 | 877.1 | 866.3 | 855.4 | – | – | – | –
40000 kPa, x1 = 0.8885 | 889.7 | 878.9 | 868.2 | 857.2 | – | – | – | –
40000 kPa, x1 = 0.9435 | 890.6 | 879.7 | 869 | 858.1 | – | – | – | –
40000 kPa, x1 = 1 | 891.4 | 880.6 | 869.7 | 858.8 | – | – | – | –
